Laboratory results as given in PMC13421293 (Thrombosis and Haemostasis, 2025).

Experiments:
platelet reactivity = assay: Platelet reactivity by multiple electrode aggregometry (Multiplate) in unstable angina patients
canine platelet = tested on: canine platelet; set-up: method as in PMID 5554584; conditions: commonly used concentrations; cited from earlier work
[1] = Concentrations of ticagrelor and active metabolite AR-C124910XX by LC-MS in unstable angina patients; conditions: for AUC: AUC TPC, total exposure to ticagrelor, area under the ticagrelor plasma concentration curve, 0–360 min; for concentration at 15 min: 15 min post ticagrelor LD 180 mg; for concentration at 30 min: 30 min post ticagrelor LD 180 mg; for concentration at 45 min: 45 min post ticagrelor LD 180 mg; for concentration at 60 min: 60 min post ticagrelor LD 180 mg; for concentration at 120 min: 120 min post ticagrelor LD 180 mg; for concentration at 240 min: 240 min post ticagrelor LD 180 mg; for concentration at 360 min: 360 min post ticagrelor LD 180 mg
[2] = 0–360 min post ticagrelor LD 180 mg
[3] = human, plasma, oral, 180 mg, Ticagrelor plasma concentration, Mean ± SD
[4] = human, plasma, oral, 180 mg, Ticagrelor plasma concentration, Median (Q1–Q3)
[5] = 15 min post ticagrelor LD 180 mg, MEA
[6] = 30 min post ticagrelor LD 180 mg, MEA
[7] = 45 min post ticagrelor LD 180 mg, MEA
[8] = 60 min post ticagrelor LD 180 mg, MEA
[9] = 120 min post ticagrelor LD 180 mg, MEA
[10] = 180 min post ticagrelor LD 180 mg, MEA
[11] = 240 min post ticagrelor LD 180 mg, MEA
[12] = time to reach low platelet reactivity after ticagrelor LD, MEA

COC(F)(F)C(Cl)Cl [methoxyflurane]
effect on platelet reactivity (platelet reactivity; methoxyflurane added to ticagrelor LD vs ticagrelor alone, MEA AUC): inhibitory effect | ADP-induced canine platelet aggregation (canine platelet): significant reduction

CCCSc1nc(N[C@@H]2C[C@H]2c2ccc(F)c(F)c2)c2nnn([C@@H]3C[C@H](OCCO)[C@@H](O)[C@H]3O)c2n1 [Ticagrelor, ticagrelor]
Ticagrelor maximum concentration, Mean ± SD [1, 2]: 699 ± 257 ng/mL | Ticagrelor maximum concentration, Median (Q1–Q3) [1, 2]: 680 (514–800) ng/mL | Ticagrelor plasma concentration, Mean ± SD ([1]; baseline): 0 ng/mL | Ticagrelor plasma concentration, Median (Q1–Q3) ([1]; baseline): 0 ng/mL | AUC ([1]; human, plasma, oral, 180 mg, Mean ± SD): 2310 ng·h/mL | AUC ([1]; human, plasma, oral, 180 mg, Median (Q1–Q3)): 2070 ng·h/mL | concentration at 15 min [1, 3]: 20 ± 29 ng/mL | concentration at 30 min [1, 3]: 171 ± 237 ng/mL | concentration at 45 min [1, 3]: 329 ± 353 ng/mL | concentration at 60 min [1, 3]: 464 ± 379 ng/mL | concentration at 120 min [1, 3]: 533 ± 243 ng/mL | concentration at 240 min [1, 3]: 404 ± 136 ng/mL | concentration at 360 min [1, 3]: 291 ± 94 ng/mL | concentration at 15 min [1, 4]: 13 ng/mL | concentration at 30 min [1, 4]: 69 ng/mL | concentration at 45 min [1, 4]: 210 ng/mL | concentration at 60 min [1, 4]: 316 ng/mL | concentration at 120 min [1, 4]: 569 ng/mL | concentration at 180 min ([1]; human, plasma, oral, 180 mg, Ticagrelor plasma concentration, Median (Q1–Q3), 180 min post ticagrelor LD 180 mg): 453 ng/mL | concentration at 240 min [1, 4]: 402 ng/mL | concentration at 360 min [1, 4]: 290 ng/mL | AUC 15 (platelet reactivity), Mean ± SD (platelet reactivity; [5]): 66.08 ± 26.54 U | AUC 15 (platelet reactivity), Median (Q1–Q3) (platelet reactivity; [5]): 66 (48–87) U | AUC 30 (platelet reactivity), Mean ± SD (platelet reactivity; [6]): 47.76 ± 27.79 U | AUC 30 (platelet reactivity), Median (Q1–Q3) (platelet reactivity; [6]): 36 (27–66) U | AUC 45 (platelet reactivity), Mean ± SD (platelet reactivity; [7]): 34.56 ± 22.95 U | AUC 45 (platelet reactivity), Median (Q1–Q3) (platelet reactivity; [7]): 28 (17–36) U | AUC 60 (platelet reactivity), Mean ± SD (platelet reactivity; [8]): 26.64 ± 17.75 U | AUC 60 (platelet reactivity), Median (Q1–Q3) (platelet reactivity; [8]): 26 (16–32) U | AUC 120 (platelet reactivity), Mean ± SD (platelet reactivity; [9]): 21.6 ± 13.37 U | AUC 120 (platelet reactivity), Median (Q1–Q3) (platelet reactivity; [9]): 21 (17–25) U | AUC 180 (platelet reactivity), Mean ± SD (platelet reactivity; [10]): 21.32 ± 12.03 U | AUC 180 (platelet reactivity), Median (Q1–Q3) (platelet reactivity; [10]): 22 (13–28) U | AUC 240 (platelet reactivity), Mean ± SD (platelet reactivity; [11]): 23.76 ± 16.86 U | AUC 240 (platelet reactivity), Median (Q1–Q3) (platelet reactivity; [11]): 22 (17–26) U | AUC 360 (platelet reactivity), Median (Q1–Q3) (platelet reactivity; 360 min post ticagrelor LD 180 mg, MEA): 19 (12–25) U | AUC 0 (platelet reactivity), Median (Q1–Q3) (platelet reactivity; baseline, MEA, UA patients): 73 (54–95) U | AUC 0 (platelet reactivity, area under the aggregation curve), Mean ± SD (platelet reactivity; baseline, MEA, UA patients): 76.36 ± 21.82 U | Time to AUC < 46 U, Mean ± SD (platelet reactivity; [12]): 43.8 ± 46.42 | Time to AUC < 46 U, Median (Q1–Q3) (platelet reactivity; [12]): 30 (30–45)

[N-]=[N+]=O [nitrous oxide]
ADP-induced canine platelet aggregation (canine platelet): significant reduction

CCOCC [diethyl ether]
ADP-induced canine platelet aggregation (canine platelet): significant reduction

FC(F)(F)C(Cl)Br (stereo not drawn) [halothane]
ADP-induced canine platelet aggregation (canine platelet): significant reduction
